Results on one compound are retold here after publication PMC11530593, “Structural mechanism of human HCN1 hyperpolarization-activated channel inhibition by ivabradine” (The Journal of Biological Chemistry, 2024).

Positions count from the first letter of the chain named.

Test [1] concerns the target T1, HCN1 mutant D140A (Homo sapiens, UniProt O60741, D140A).
T1 construct: Full-length WT or mutant human HCN1 were cloned into the pcDNA3.1 vector; expressed in transfected cells; host or cells: HeLa cells, pcDNA3.1 vector, transient lipofection
T1 sequence (O60741 1-890 D140A): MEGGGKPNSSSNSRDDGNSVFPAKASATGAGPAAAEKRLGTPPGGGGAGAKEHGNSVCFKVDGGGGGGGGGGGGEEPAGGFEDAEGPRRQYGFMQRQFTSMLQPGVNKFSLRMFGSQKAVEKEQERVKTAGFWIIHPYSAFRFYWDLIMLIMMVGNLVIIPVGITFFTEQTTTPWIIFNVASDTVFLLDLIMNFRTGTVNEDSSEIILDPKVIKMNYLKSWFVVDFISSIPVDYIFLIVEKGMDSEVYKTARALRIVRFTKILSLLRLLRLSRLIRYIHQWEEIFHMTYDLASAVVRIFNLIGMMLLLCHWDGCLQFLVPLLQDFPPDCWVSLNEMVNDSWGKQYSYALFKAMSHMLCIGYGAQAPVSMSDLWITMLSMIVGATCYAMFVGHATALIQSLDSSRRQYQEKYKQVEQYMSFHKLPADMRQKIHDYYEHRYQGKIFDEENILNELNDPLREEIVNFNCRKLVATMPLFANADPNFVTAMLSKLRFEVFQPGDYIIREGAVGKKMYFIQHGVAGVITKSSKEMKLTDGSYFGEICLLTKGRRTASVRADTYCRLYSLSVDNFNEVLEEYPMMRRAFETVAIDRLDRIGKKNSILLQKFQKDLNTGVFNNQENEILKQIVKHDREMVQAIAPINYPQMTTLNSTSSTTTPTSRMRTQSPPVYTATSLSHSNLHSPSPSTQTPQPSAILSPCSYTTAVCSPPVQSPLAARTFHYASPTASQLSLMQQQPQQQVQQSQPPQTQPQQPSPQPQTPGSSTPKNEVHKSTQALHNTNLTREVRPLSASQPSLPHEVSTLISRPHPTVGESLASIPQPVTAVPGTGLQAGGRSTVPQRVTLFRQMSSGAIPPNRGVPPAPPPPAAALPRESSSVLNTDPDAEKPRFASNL
Briefly: Whole-cell patch-clamp, Ih inhibition, HCN1 mutant. Format: cell-based. Here is the method:
(§1) To elucidate the contribution of these residues to the inhibitory effect of ivabradine, we introduced mutations in ivabradine-interacting residues, converting them into alanines (Fig. 2F).
(§2) Full-length WT or mutant human HCN1 were cloned into the pcDNA3.1 vector for electrophysiological experiments. HeLa cells (from Thermo Fisher Scientific) cultured in Dulbecco's modified Eagle's medium (from Solarbio Life Science) + 10% fetal bovine serum (from ExCell Bio) at 37 °C were transiently transfected using lipofection, and whole-cell patch-clamp recordings were obtained using the Axon 200B amplifier (Molecular Devices) and clampex software (https://www.moleculardevices.com/products/axon-patch-clamp-system/acquisition-and-analysis-software/pclamp-software-suite), 36 to 48 h posttransfection. The extracellular solution contained 110 mM NaCl, 0.5 mM MgCl2, 1.8 mM CaCl2, 5 mM Hepes, 30 mM KCl, and pH was adjusted to 7.4 with NaOH, while the pipette solution contained 130 mM KCl, 10 mM NaCl, 0.5 mM MgCl2, 1 mM EGTA, 5 mM Hepes, and pH was adjusted to 7.4 with KOH. The recordings were performed at room temperature, voltage-clamp mode, and filtered at 1 kHz. The sampling frequency was 10 kHz, and the series resistance was limited to 5 MΩ. To elicit channel currents, step pulses of 3 s duration ranging from −180 mV to −30 mV were applied, followed by a step to −180 mV lasting 1.25 s. The tail currents evoked by the second step were used to determine the voltage-dependent activation curves and calculate the midpoint of activation potential (V1/2). The half maximal inhibitory concentration (IC50) of drugs was determined by recording currents at a pulse of −140 mV and analyzing current amplitudes at varying drug concentrations. The IC50 value was calculated using the Hill equation.

In test [2] the target is T2, HCN1 mutant F285A (Homo sapiens, UniProt O60741, F285A).
T2 construct: Full-length WT or mutant human HCN1 were cloned into the pcDNA3.1 vector; expressed in transfected cells; host or cells: HeLa cells, pcDNA3.1 vector, transient lipofection
T2 sequence (O60741 1-890 F285A): T1 sequence (O60741 1-890 D140A) with A140D, F285A
Briefly: Whole-cell patch-clamp, Ih inhibition, HCN1 mutant. Format: cell-based. Conditions: electrophysiological recordings, read-out: IC50 (Fig. 2F). The procedure:
as §1, §2
On the technique in general: The patch-clamp technique gives a direct electrical read-out from membranes.

For orientation: IC50 means the concentration at which inhibition is half-maximal. On to `COc1cc2c(cc1OC)CC(=O)N(CCCN(C)C[C@H]1Cc3cc(OC)c(OC)cc31)CC2` [ivabradine], for which the IC50 came to 27.6 µM in test [1] (D140A mutant, electrophysiological recordings, read-out: IC50 (Fig. 2F)) and 13.4 µM in test [2]. Moreover, the “change in potency by mutation” value in test [1] (D140A versus WT) was “dramatic decrease”.
